Measurements reported in US11993640B2, “Treating inflammatory lung disease” (United States Government as represented by the Department …, priority 2019, dated 2024).
Non-standard residues stand in square brackets, D forms with d. Residues, ends and D or L forms follow the SMILES beside them. *: point of attachment. Phe(F5) = N[C@@H](Cc1c(F)c(F)c(F)c(F)c1F)C(=O)O; hArg = N=C(N)NCCCC[C@H](N)C(=O)O; 12Ado = NCCCCCCCCCCCC(=O)O; Nle = CCCC[C@H](N)C(=O)O; Orn = NCCC[C@H](N)C(=O)O; Abu = CC[C@H](N)C(=O)O; PhAc = O=C(Cc1ccccc1)*

Assays:
[1] = system: RT4 cells; assay: In vitro cell viability, urothelial cancer RT4; format: cell-based, human; details: 5 μM, 72 h; relative to MIA602 = 1; Table 3A
Procedure: (§1) The inhibitory effects of the various synthesized GHRH antagonists were tested in cell proliferation assays in various human cancer cell lines including stomach cancer (KATOIII, N87), colon cancer (HT-29), urothelial cancer (J82, RT4), pancreatic cancer (PANC-1, CFPAC-1), prostatic cancer (PC3), breast cancer (MX-1, HCC1806), ovarian cancer (SK-OV-3, OVCAR-3) and lung cancer (HCC827, H460).
(§2) Cell culture. Human cancer cell lines including pancreatic (PANC-1 and CFPAC-1), lung (HCC827 and H460), stomach (NCI-N87 and KATOIII), urothelial (J82, RT4), prostatic (PC3), breast (MX-1 and HCC 1806), colorectal (HT-29), and ovarian (SK-OV-3 and OVCAR-3) were obtained from the American Type Culture Collection (ATCC) and cultured at 37° C. in a humidified 95% air/5% CO2 atmosphere in the medium recommended by ATCC.
(§3) In vitro cell viability. Cell viability was analyzed as follows: cancer cells including pancreatic (PANC-1 and CFPAC-1), lung (HCC827 and H460), stomach (NCI-N87 and KATOIII), urothelial (J82, RT4), prostatic (PC3) and breast (MX-1 and HCC 1806), colorectal (HT-29) and ovarian (SK-OV-3 and OVCAR-3) were grown on 96 well plates to ˜60% confluence, the cells were starved for 24 h in culture medium containing 0.5% FBS. Cells were then treated with GHRH antagonists MIA602 AVR compounds at concentrations of 1, 2.5 or 5 μM, or vehicle (0.1% DMSO) in quintuplicates for 72 hours. The medium was replaced every 48 hours. Cell viability was measured using CellTiter 96 aqueous one solution kit (Promega). Inhibitory effects of tested AVR compounds in comparison to that of MIA602 are presented as inhibitory potency.
(§4) Inhibitory effects of selected AVR compounds in comparison to that of MIA602 are presented as inhibitory potency (e.g., percentage of inhibition). […] The cell lines tested including lung cancer HCC827 (FIG. 2A), pancreatic cancer CFPAC-1 (FIG. 2B), stomach cancer N87 (FIG. 2C), colon cancer HT-29 (FIG. 2D), breast cancers MX-1 and HCC1806 (FIGS. 2E, F). […]

[2] = system: PC3 cells; assay: In vitro cell viability, prostatic cancer PC3; format: cell-based, human; details: 5 μM, 72 h; relative to MIA602 = 1; Table 3A
Procedure: as §1, §2, §3, §4

[3] = system: HCC827 xenograft; assay: Xenograft tumor growth in nude mice, lung cancer HCC827; format: in vivo; details: Panel C, 8 weeks, 5 μg/day s.c.
Procedure: The peptides' activity was compared with GHRH antagonist MIA-602. All statistical analyzses were performed from comparing GHRA antagonists to non-treated tumor (control).
Peptides and chemicals. GHRH antagonists MIA-602 and AVR-GHRH antagonists (see Table 2 above) were synthesized by solid phase methods and purified by HPLC. The peptides were dissolved in DMSO and further diluted in 10% 1, 2-propanediol. The final concentration of peptides was 50 µg/ml in 10% 1, 2-propanediol containing 0.1% of DMSO.
as §2, with “(NCI-N87), prostate” for “(NCI-N87 and KATOIII), urothelial (J82, RT4), prostatic”, “brest” for “breast”, “HCC-1806),” for “HCC 1806),”
Xenograft models of human cancers in nude mice. Female athymic (NCr nu/nu) nude mice, 5-to 6-weeks-old, obtained from the Envigo labs (Tampa, FL), were housed in laminar airflow cabinets under pathogen-free conditions with a 12-h light/12-h dark schedule, and were fed autoclaved standard chow and water. To generate mice with xenografted tumors, tumor xenografts were initiated by subcutaneous (s.c.) injection of […] human cancer cells into female nude mice. After about 4 weeks the resulting tumors were dissected and collected after removing necrosis tissues. The tumors were then cut into particles with size of ˜3 mm3 and transplanted s.c. by trocar needle into experimental animals. When tumors grew to the size of 50-60 mm3 (by volume), mice were randomized into groups and treated daily for 4-8 weeks by subcutaneous administration of 5 μg of GHRH antagonists MIA-602 or AVR-compounds (2-10 μg as indicated), or vehicle solutions (0.1% DMSO in 10% 1, 2-propanediol) respectively. Tumor sizes were measured weekly.
Statistical analysis. One-way ANOVA followed by Bonferroni comparison were performed. Data are expressed as Mean±SEM. To determine statistical significance between animal groups, two-tailed Student's t-test was conducted. Differences were considered significant when p<0.05.
Results. […] FIG. 1A-N represents in vivo inhibition of tumor growth during the treatment with GHRH antagonist MIA-602 and selected AVR antagonists in nude mice xenografted with various human tumors including pancreatic cancer PANC-1 (FIG. 1A) and CFPAC-1 (FIG. 1I); lung cancer HCC827 (FIGS. 1B, C) and H460 (FIG. 1H); stomach cancer N87 (FIGS. 1D-F); colon cancer HT-29 (FIG. 1G); breast cancer MX-1 and HCC-1806 (FIGS. 1J, K); ovarian cancer SK-OV-3 and OVACAR-3 (FIGS. 1L, M) and prostate cancer PC3 (FIG. 1N). See also Table 5.

## CCCC[C@H](NC(=O)[C@@H](NC(=O)[C@H](CC(=O)O)NC(=O)[C@H](CCC(N)=O)NC(=O)[C@H](CC(C)C)NC(=O)[C@H](CC(C)C)NC(=O)[C@H](CCCN)NC(=O)[C@H](Cc1c[nH]cn1)NC(=O)[C@H](C)NC(=O)[C@H](CO)NC(=O)[C@H](CC(C)C)NC(=O)[C@H](CCC(N)=O)NC(=O)[C@H](CC)NC(=O)[C@H](CC(C)C)NC(=O)[C@@H](NC(=O)[C@H](CCCN)NC(=O)[C@H](Cc1c[nH]cn1)NC(=O)[C@H](Cc1ccc(OC)cc1)NC(=O)[C@H](CCCCNC(=N)N)NC(=O)[C@H](C)NC(=O)[C@@H](NC(=O)[C@H](Cc1c(F)c(F)c(F)c(F)c1F)NC(=O)[C@@H](NC(=O)[C@H](C)NC(=O)[C@H](CC(=O)O)NC(=O)[C@@H](CCCNC(=N)N)NC(=O)[C@H](Cc1ccc(O)cc1)NC(=O)CCCCCCCCCCCNC(=O)Cc1ccccc1)[C@@H](C)CC)[C@@H](C)O)C(C)C)[C@@H](C)CC)C(=O)N[C@H](CCCNC(=N)N)C(=O)N[C@@H](CCCCNC(=N)N)C(N)=O [MIA-602, PhAC-Ada, Tyr D-Arg, Asp, Ala, Ile, 5FPhe, Thr, Ala, Har, Tyr(Me), His, Orn, Val, Leu, Abu, Gin, Leu, Ser, Ala, His, Orn, Leu, Leu, Gin, Asp, Ile, Nle, D-Arg, Har NH2, reference compound] ({PhAc-12Ado}-Y[dR]DAI[Phe(F5)]TA[hArg]Y(Me)H[Orn]VL[Abu]QLSAH[Orn]LLQDI[Nle][dR][hArg]-NH2)
[1]
  Relative inhibitory potency, Urothelial RT4: 1
[2]
  Relative inhibitory potency, Prostatic PC3: 1
[3]
  Tumor Growth %: 523.03%
[3]; vs control
  % Inhibition: 37.8%
